Measured values taken from ChEMBL document CHEMBL3098115, “Drug discovery considerations in the development of covalent inhibitors” (2014).

Columns and labels:
Format in all cases: functional
Mus musculus [1] = experiment: Ex vivo inhibition of EST31 in C57BL/6 mouse liver at 1 mg/kg, ip after 1 hr relative to vehicle-treated control; details: C57BL/6, Liver, route intraperitoneal
Mus musculus [2] = experiment: Ex vivo inhibition of EST31 in C57BL/6 mouse kidney at 1 mg/kg, ip after 1 hr relative to vehicle-treated control; details: C57BL/6, Kidney, route intraperitoneal
Mus musculus [3] = experiment: Ex vivo inhibition of CE6 in C57BL/6 mouse liver at 1 mg/kg, ip after 1 hr relative to vehicle-treated control; details: C57BL/6, Liver, route intraperitoneal
Mus musculus [4] = experiment: Ex vivo inhibition of CE6 in C57BL/6 mouse kidney at 1 mg/kg, ip after 1 hr relative to vehicle-treated control; details: C57BL/6, Kidney, route intraperitoneal

Measured: inhibition in vivo at 1 mg/kg

C#CCCCCCCCCCNC(=O)Oc1cccc(-c2cccc(C(N)=O)c2)c1
< 20%: all assays above
